Measured values from patent publication US9393295B2, “Nanoparticles for use in pharmaceutical compositions” (Novartis AG, priority 2008, dated 2016).

Assay: SMIP encapsulation efficiency (UPLC of pellet and supernatant)
Type: physicochemical
Conditions: RG 502H 2% w/v nanoparticles, theoretical SMIP loading 2% w/w of PLG
Method: Nanoparticles with a theoretical SMIP loading level of 2% w/w of PLG were prepared for the SMIP encapsulation study. Both water (pH 5.5-6) and Tris EDTA buffer (pH 7-8) were used for the aqueous phases. […] Since, a basic SMIP is being employed here, Tris EDTA buffer was used for the aqueous phase, which maintained the pH of the suspension between 7 and 8.
The encapsulation efficiency was calculated as a ratio of mass of SMIP in the nanoparticles to the mass of SMIP used in the formulation. More particularly, the nanoparticle suspension was aliquoted (1 ml) into 2 vials and centrifuged at 16000 RPM for 30 minutes. The amount of SMIP in the supernatant was determined using an ultra performance liquid chromatography (Waters Acquity UPLC, Milford, Mass., USA) assay. The pellet was washed three times and the amount of SMIP in the pellet was determined after hydrolyzing the pellet with sodium hydroxide, followed by neutralization with hydrochloric acid. Encapsulation efficiency was calculated as ratio of the SMIP in the pellet to the total SMIP content of the suspension. Mass balance was achieved by hydrolyzing 1 ml of the suspension and determining the total SMIP content in 1 ml of the suspension.

Structure (SMILES): CCCN(C)c1nc2c(N)nc3ccccc3c2n1CC(C)(C)O [SMIP]
- encapsulation efficiency (Tris EDTA buffer (pH 7-8) as aqueous phase): greater than 90%
- encapsulation efficiency (water (pH 5.5-6) as aqueous phase): 40-50%
